# Target: T1, 3-mercaptopyruvate sulfurtransferase (3-MST) (Homo sapiens, UniProt P25325)
# T1 sequence (P25325 2-297): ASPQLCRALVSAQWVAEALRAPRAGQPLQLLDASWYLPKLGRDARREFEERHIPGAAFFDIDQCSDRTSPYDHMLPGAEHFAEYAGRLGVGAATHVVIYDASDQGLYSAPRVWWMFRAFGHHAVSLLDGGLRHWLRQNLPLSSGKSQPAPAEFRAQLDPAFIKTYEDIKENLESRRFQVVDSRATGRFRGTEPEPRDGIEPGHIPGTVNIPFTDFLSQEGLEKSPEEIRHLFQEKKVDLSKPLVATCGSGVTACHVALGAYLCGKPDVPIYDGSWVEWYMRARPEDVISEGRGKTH
# Test: biochemical 3-MST inhibition assay, concentration-response
structure (smiles),measurement,value
"COc1cc2cc(Oc3ccc4ccc(=O)oc4c3)c(=O)oc2cc1O [compound 5, Daphnoretin]",IC50,9.59 ± 1.22 µM
